Like-named read-outs stand apart in the source and are kept apart here.
Legend:
[1] = tested on: test organisms (Bacillus cereus, Staphylococcus aureus, Salmonella typhimurium, Escherichia coli, Saccharomyces cerevisiae, bacteriophage); details: for effect on viable count of test organisms: 5 kg meat
model prion protein = details: T5 protocol; 5 g meat, 20% moisture, 100 ug model prion protein

SMILES: OO [gaseous hydrogen peroxide, hydrogen peroxide]
- inactivation of S. cerevisiae (S. cerevisiae): particularly striking effect
- effect on viable count (E. coli): elimination
- effect on viable count of test organisms ([1]; trial T1: 30 ml 30% (v/v) H2O2 vaporised, 2.6 g/kg, 0.01 g/kg/s, 30 minutes contact, about 0.01 kPa): little or no effect
- effect on viable count of test organisms ([1]; trial T2: 60 ml 30% (v/v) H2O2 vaporised, 0.01 g/kg/s, 30 minutes contact): little or no effect
- effect on the organisms ([1]; trial T3: 90 ml 30% (v/v) H2O2, 7.9 g/kg meat, 0.01 g/kg/s, 30 minutes contact): significant effect
- inactivation compared with T3 on increasing the contact rate ([1]; trial T5: 30 ml introduced rapidly over about 5 seconds (0.5 g/kg/s), then 60 ml at 0.01 g/kg/s): enhanced
- effect on viable count (S. aureus): elimination
- prion content after treatment versus positive control (model prion protein): significantly destroyed
- effect on viable count (mesophilic organisms): elimination
- effect on viable count (S. typhimurium): elimination
